Consider two molecules from patent US20120131697A1, “GENE ENCODING AUXIN RECEPTOR PROTEIN DERIVED FROM RICE AND USE THEREOF” (REPUBLIC OF KOREA (MANAGEMENT: RURAL DEVELOPMENT …, priority 2009, published 2012).

One assay addresses ABP57 (Oryza sativa subsp. japonica, UniProt B7ELI0). Kind of assay: Scatchard analysis of binding between recombinant ABP57 and auxin hormone IAA. Set-up: species or system rice. The note with it: recombinant protein.
Assay [1] has as its system proton pump in plasma membrane. Description: Activation of proton pump in rice plasma membrane by ABP57 protein (fluorescence analyzer, Hill plot). In kind it is biochemical. As to the method: The purified protein and the proton pump in plasma membrane, which had been separated from rice, were admixed with each other, and then the activity of proton pump was measured by fluorescence analyzer.
The change in degree of activating proton pump according to concentration of the recombinant protein was measured and analyzed by Hill plot analysis. […] Further, this value was very close to the Hill coefficient of 0.97, which was obtained by previous studies for the interaction between the proton pump and natural ABP57 (FIG. 8).

Turning to `O=C(O)Cc1c[nH]c2ccccc12` [IAA, indole-3-acetic acid], the Kd at ABP57 (FIG. 9, read-out: IAA dissociation constant) worked out at 3.6 µM. Further, the “number of binding site” value at ABP57 (corresponds to low affinity binding site of natural ABP57) is on record as 1.

B1: recombinant protein: recombinant auxin receptor protein ABP57 from rice, expressed in E. coli as MBP fusion, MBP removed (SEQ ID NO: 1) (protein, listed as Oryza sativa)
chain: MAEIVSSVVVHEAVNQIIHGLVNWNERKSSAEENMERLEMAHIRLEAALETSCKWRITDSSLLCWQKKLKRAAQECDDTLRKCRQRILEQEEAEQEVRNSSIPRRIAHATKSLVSSLFYSNIDGSCRSAVRRFEWFADGANEFLRFVEFGGTPHQYLFFDPLIRQLLAGKTLEYKLVSENKYRLFVIRPFCISENRIEARLIFDSKNASALEDDFFLCMLLQVSESVDILGIVIKCLQLFNPHFMSTAESVRNELTQLPSQDFTWVPYAESCHKKHWDNIHSITTQWFRPNPLCCKQHGQNHSCESSNLGMPSVQGVSLGPVIEVSLQCHVPVPEFREQGTIVKGKPSLKKCPHMKVDLVYTPHGSSQDLLPEIKSSVIEVINGDKQHCLHTNIALELMEEIMLPRAVDCFHENAEAKLYQMLWKSKHGGAYLQVMKATMNTRSTQRTIRGSRKAKLLQQQGHKTQHRTNAISDFLNLWSAHAPVQLQGSILDWIQKEKEAQLAPPLLRLKF
By Hill coefficient is commonly meant the slope factor of the fitted curve. For B1, in assay [1] (degree of activating proton pump according to concentration of recombinant protein, Hill plot, FIG. 8), the Hill coefficient came out at 0.94. Further, the “activity of proton pump” value in assay [1] (purified recombinant protein admixed with proton pump in plasma membrane separated from rice, FIG. 7) is “increase in the activity of proton pump”.
